Results taken from BindingDB's records for doi:10.1016/s0960-894x(97)10184-6 (Cinc, 1999).

Experiments:
[1] = Tested for inhibition of substrate hydrolysis in the presence of porcine kidney esterase at a concentration of 45 nM
[2] = Tested for inhibition of substrate hydrolysis in the presence of porcine kidney esterase at a concentration of 1 uM
[3] = Tested for inhibition of substrate hydrolysis in the presence of porcine kidney esterase at a concentration of 9 uM

Row | SMILES | Ki [1] [nM] | Ki [2] [nM] | Ki [3] [nM]
1 | COC(=O)/C(OC(C)=O)=C(\NC(=O)[C@@H]1CCCN1C(=O)[C@H](C)NC(=O)[C@H](C)NC(=O)c1ccc(C(=O)NS(=O)(=O)c2ccc(Cl)cc2)cc1)C(C)C [(E)-2-Acetoxy-3-{[(S)-1-((S)-2-{(S)-2-[4-(4-chloro-benzenesulfonylaminocarbonyl)-benzoylamino]-propionylamino}-propionyl)-pyrrolidine-2-carbonyl]-amino}-4-methyl-pent-2-enoic acid methyl ester] | 13 |  | 
2 | COC(=O)CCC(=O)N[C@@H](C)C(=O)N[C@@H](C)C(=O)N1CCC[C@H]1C(=O)N/C(=C(/OC(C)=O)C(=O)OC)C(C)C [(E)-2-Acetoxy-3-[((S)-1-{(S)-2-[(S)-2-(3-methoxycarbonyl-propionylamino)-propionylamino]-propionyl}-pyrrolidine-2-carbonyl)-amino]-4-methyl-pent-2-enoic acid methyl ester] |  | 130 | 130
